Columns and labels:
[1] = Solubility in aqueous systems; type: physicochemical
[2] = Blood levels after oral gavage; design: species or system adult rats; conditions: rat, in vivo
Source text: In the treatment of certain localized conditions, the degree of hydrophilicity of the CMT can be of lesser importance. […].

[3] = Toxicity in vivo; conditions: 2.0 µg/ml concentration
[4] = Testing in cancer patients (side effects); type: in vivo
[5] = tested on: Candida albicans, ATCC 14053; experiment: SABHI agar plate growth inhibition screen; type: cell-based; conditions: for Growth at 25 µg/ml compared to control at 24 hrs incubation / Growth at 25µg/ml compared to control at 48 hours: Candida Albicans, 30°C, growth grade; for Activity against Candida albicans (Example 1): 25 µg/ml SABHI agar
Method: (§1) The following fungi were inoculated onto potato dextrose agar (PDA) from stock cultures and incubated aerobically at 30°C: Aspergillus [NT] 1022, Penicillium sp. (laboratory isolate), Candida albicans, ATCC 14053, and Rhizopus sp. […] Candida albicans was suspended in saline and adjusted to 0.5 MacFarland in a similar manner. These suspensions were diluted 1:100 in sterile 0.9% saline. SABHI Agar (Difco) pH 7.0 was prepared in 100ml amounts and sterilized at 121°C for 15 min. […] The plates were then incubated aerobically for 24 hour and for 48 hours at 30°C.

[6] = tested on: Aspergillus fumigatus ATCC 1022; experiment: SABHI agar plate growth inhibition screen; type: cell-based; conditions: for Activity against Aspergillus fumigatus (Example 1): 25 µg/ml SABHI agar; for Growth at 25 µg/ml compared to control at 24 hrs incubation / Growth at 25µg/ml compared to control at 48 hours: Aspergillus Fumigatus, 30°C, growth grade
Method: as §1

[7] = tested on: Penicillium sp. (laboratory isolate); experiment: SABHI agar plate growth inhibition screen; type: cell-based; conditions: for Activity against Penicillium sp. (Example 1): 25 µg/ml SABHI agar; for Growth at 25 µg/ml compared to control at 24 hrs incubation / Growth at 25µg/ml compared to control at 48 hours: Penicillium Sp., 30°C, growth grade
Method: as §1

[8] = tested on: Rhizopus sp.; experiment: SABHI agar plate growth inhibition screen; type: cell-based; conditions: for Growth at 25 µg/ml compared to control at 24 hrs incubation / Growth at 25µg/ml compared to control at 48 hours: Rhizopus sp., 30°C, growth grade
Method: as §1

Row | Compound | Solubility in aqueous systems [1] | Blood levels [2] | Toxicity in vivo [3] | Side effects [4] | Growth at 25 µg/ml compared to control at 24 hrs incubation [5] | Growth at 25µg/ml compared to control at 48 hours [5] | Activity against Aspergillus fumigatus (Example 1) [6] | Growth at 25 µg/ml compared to control at 24 hrs incubation [6] | Growth at 25µg/ml compared to control at 48 hours [6] | Activity against Penicillium sp. (Example 1) [7] | Growth at 25 µg/ml compared to control at 24 hrs incubation [7] | Growth at 25µg/ml compared to control at 48 hours [7] | Growth at 25 µg/ml compared to control at 24 hrs incubation [8] | Growth at 25µg/ml compared to control at 48 hours [8] | Activity against Candida albicans (Example 1) [5] | Activity against Rhizopus sp. (Example 1) ([8]; 25 µg/ml SABHI agar)
1 | CN(C)C1C(=O)C(C#N)=C(O)C2(O)C(=O)C3=C(O)c4c(O)cccc4C(C)(O)C3CC12 (stereo not drawn) [CMT-2, tetracyclinonitrile] | low solubility in aqueous systems | no detectable blood levels | – | – | – | – | – | – | – | – | – | – | – | – | – | –
2 | NC(=O)C1=C(O)C[C@@H]2C[C@@H]3Cc4cccc(O)c4C(=O)C3=C(O)[C@]2(O)C1=O [CMT-3, 6-demethyl-6-deoxy-4-de(dimethylamino)tetracycline] | – | – | very little toxicity | without evidence of side effects, except at unusually high doses | – | – | – | – | – | – | – | – | – | – | – | –
3 | CC1(O)c2c(Cl)ccc(O)c2C(=O)C2=C(O)C3(O)C(=O)C(C(N)=O)=C(O)CC3CC21 (stereo not drawn) [CMT-4, 7-chloro-4-de(dimethylamino)tetracycline] | – | – | – | – | 1 (75% reduction in growth in colonies compared to control.) | 4 (Level of growth in the absence of anti-fungal agent (control).) | demonstrated activity | 0 (complete inhibition of growth.) | 1 (75% reduction in growth in colonies compared to control.) | demonstrated activity | 3 (25% reduction in growth of colonies compared to control.) | 0 (complete inhibition of growth.) | 4 (Level of growth in the absence of anti-fungal agent (control).) | 4 (Level of growth in the absence of anti-fungal agent (control).) | – | –
4 | CC1(O)c2cccc(O)c2C(=O)C2=C(O)C3C(=O)C(C(N)=O)=C(O)CC3CC21 (stereo not drawn) [CMT-7, 4-de(dimethylamino)-12α-deoxytetracycline] | – | – | – | – | 0 (complete inhibition of growth.) | 0 (complete inhibition of growth.) | – | 0 (complete inhibition of growth.) | 4 (Level of growth in the absence of anti-fungal agent (control).) | – | 3 (25% reduction in growth of colonies compared to control.) | 4 (Level of growth in the absence of anti-fungal agent (control).) | 4 (Level of growth in the absence of anti-fungal agent (control).) | 3 (25% reduction in growth of colonies compared to control.) | strong activity | –
5 | NC(=O)C1=C(O)C[C@@H]2C[C@@H]3Cc4ccc(N)c(O)c4C(=O)C3=C(O)[C@]2(O)C1=O [CMT-308] | – | – | – | – | 4 (Level of growth in the absence of anti-fungal agent (control).) | 4 (Level of growth in the absence of anti-fungal agent (control).) | demonstrated activity | 0 (complete inhibition of growth.) | 1 (75% reduction in growth in colonies compared to control.) | demonstrated activity | 0 (complete inhibition of growth.) | 0 (complete inhibition of growth.) | 4 (Level of growth in the absence of anti-fungal agent (control).) | 4 (Level of growth in the absence of anti-fungal agent (control).) | – | –
6 | O=C(NCN1CCNCC1)C1=C(O)C[C@@H]2C[C@@H]3Cc4cccc(O)c4C(=O)C3=C(O)[C@]2(O)C1=O [CMT-315] | – | – | – | – | 0 (complete inhibition of growth.) | 0 (complete inhibition of growth.) | activity against all the fungi tested | 0 (complete inhibition of growth.) | 0 (complete inhibition of growth.) | activity against all the fungi tested | 0 (complete inhibition of growth.) | 0 (complete inhibition of growth.) | 1 (75% reduction in growth in colonies compared to control.) | 1 (75% reduction in growth in colonies compared to control.) | activity against all the fungi tested | activity against all the fungi tested

Source: patent publication EP1296703B1, “NON-ANTIBACTERIAL TETRACYCLINE AS ANTI-FUNGAL AGENTS” (Liu, Yu, priority 2000, dated 2001)
